From the supplement of paper PMC10307832

How the values were obtained:
Experiment in all cases: relative viability (nuclei count vs DMSO), 5 days (fraction); higher = more cells survive
Cediranib + Foretinib = compound: COc1cc2c(Oc3ccc4[nH]c(C)cc4c3F)ncnc2cc1OCCCN1CCCC1 [Cediranib] + COc1cc2c(Oc3ccc(NC(=O)C4(C(=O)Nc5ccc(F)cc5)CC4)cc3F)ccnc2cc1OCCCN1CCOCC1 [Foretinib] (partner 0.25 µM)
Outline: (§1)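 Relative viability divides the nuclei count in treated wells by that in vehicle wells. Lung cancer cell lines were seeded in 1536-well plates, dosed by pin tool the next day, and fixed and stained after 5 days in one step with final 0.05% Triton X-100, 1% formaldehyde and 1 ug/ml Hoechst. Dosing was a single drug or a fixed anchor-drug dose plus five library-drug doses (not always all listed) in √10 steps, and values are medians of duplicate plates imaged at 4×.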

Cediranib + Phenformin = compound: COc1cc2c(Oc3ccc4[nH]c(C)cc4c3F)ncnc2cc1OCCCN1CCCC1 [Cediranib] + N=C(N)NC(=N)NCCc1ccccc1 [Phenformin] (partner 250 µM)
Outline: as §1

Decitabine + Lapatinib = compound: Nc1ncn([C@H]2C[C@H](O)[C@@H](CO)O2)c(=O)n1 [Decitabine] + CS(=O)(=O)CCNCc1ccc(-c2ccc3ncnc(Nc4ccc(OCc5cccc(F)c5)c(Cl)c4)c3c2)o1 [Lapatinib] (partner 2 µM)
Outline: as §1

Decitabine + Crizotinib = compound: Nc1ncn([C@H]2C[C@H](O)[C@@H](CO)O2)c(=O)n1 [Decitabine] + C[C@@H](Oc1cc(-c2cnn(C3CCNCC3)c2)cnc1N)c1c(Cl)ccc(F)c1Cl [Crizotinib] (partner 1 µM)
Outline: as §1

Cell Line	relative viability (Cediranib + Foretinib; first compound 0.04 µM)	relative viability (Cediranib + Foretinib; first compound 0.1265 µM)	relative viability (Cediranib + Foretinib; first compound 0.4 µM)	relative viability (Cediranib + Foretinib; first compound 4 µM)	relative viability (Cediranib + Phenformin; first compound 0.04 µM)	relative viability (Cediranib + Phenformin; first compound 0.1265 µM)	relative viability (Cediranib + Phenformin; first compound 0.4 µM)	relative viability (Cediranib + Phenformin; first compound 4 µM)	relative viability (Decitabine + Lapatinib; first compound 0.04 µM)	relative viability (Decitabine + Lapatinib; first compound 0.1265 µM)	relative viability (Decitabine + Lapatinib; first compound 0.4 µM)	relative viability (Decitabine + Lapatinib; first compound 1.265 µM)	relative viability (Decitabine + Lapatinib; first compound 4 µM)	relative viability (Decitabine + Crizotinib; first compound 0.04 µM)	relative viability (Decitabine + Crizotinib; first compound 0.1265 µM)	relative viability (Decitabine + Crizotinib; first compound 0.4 µM)	relative viability (Decitabine + Crizotinib; first compound 1.265 µM)	relative viability (Decitabine + Crizotinib; first compound 4 µM)	relative viability (Cediranib + Foretinib; first compound 1.265 µM)	relative viability (Cediranib + Phenformin; first compound 1.265 µM)
NCI-H596	1.04	0.833	0.974	0.926	0.723	0.703	0.722	0.718	1.12	1.06	0.576	0.954	0.783	0.939	1.02	0.353	0.772	0.755	–	–
NCI-H1437	1.34	1.22	1.24	1.32	0.317	0.285	0.332	0.369	0.505	0.582	0.274	0.235	0.221	0.692	0.748	0.632	0.297	0.216	1.25	0.363
NCI-H727	–	1.05	0.868	0.93	–	–	0.483	0.533	0.709	0.659	0.483	0.447	0.433	0.711	0.513	0.537	0.341	0.33	0.84	0.528
PC-3 [JPC-3]	1.1	1.1	0.98	1.08	0.462	0.498	0.489	0.468	–	0.467	0.269	0.421	0.383	–	0.728	0.388	0.536	0.516	1.05	0.472
SW 1573	0.937	1.01	0.912	1.09	0.35	0.336	0.329	0.416	1.03	0.993	1.05	0.646	0.515	0.627	0.961	0.724	0.507	0.358	0.996	0.394
NCI-H2228	0.986	0.882	0.761	0.99	0.278	0.272	0.278	0.319	0.595	0.727	0.489	0.282	0.209	0.524	0.394	0.367	0.199	0.286	0.838	0.285
NCI-H1650	1.07	1.36	1.14	0.873	0.436	0.581	0.351	0.341	0.595	0.649	0.217	0.494	0.372	0.838	0.603	0.331	0.326	0.241	1.08	0.362
NCI-H358	0.712	0.809	0.677	0.763	0.336	0.41	0.299	0.358	0.468	0.512	0.388	0.284	0.334	0.385	0.39	0.246	0.192	0.161	0.616	0.222
COR-L 105	1.04	1.38	0.931	1.22	0.4	0.58	0.497	0.523	0.345	0.317	0.328	0.326	0.28	0.596	0.633	0.573	0.356	0.319	0.904	0.519
LU99A	0.793	0.728	0.8	0.832	0.726	0.589	0.75	0.924	1.01	1.08	1.19	0.866	0.683	0.517	0.491	0.631	0.439	0.317	0.769	0.734
H3255	0.788	–	0.821	0.932	0.404	–	0.337	0.312	0.226	0.193	0.201	0.164	0.205	0.417	0.82	0.419	0.537	0.484	0.732	0.373
NCI-H1734	0.813	0.911	0.822	0.979	0.403	0.458	0.383	0.433	0.727	0.91	0.635	0.449	0.38	0.515	0.603	0.593	0.396	0.304	0.853	0.388
NCI-H650	1.03	0.944	1	1.02	0.497	0.388	0.475	0.437	0.786	0.532	0.339	0.356	0.292	0.533	0.524	0.303	0.264	0.195	1.09	0.476
NCI-H1915	1.14	1.01	1.08	1.13	0.371	0.331	0.372	0.364	0.608	0.33	0.257	0.189	0.219	0.314	0.285	0.217	0.194	0.201	1.11	0.374
NCI-H2009	1.24	1.15	1.24	1.17	0.492	0.434	0.481	0.493	0.8	0.599	0.225	0.268	0.276	0.846	0.639	0.464	0.281	0.25	1.25	0.481
NCI-H1651	0.827	0.763	0.685	0.829	0.321	0.327	0.277	0.311	0.799	0.977	0.708	0.676	0.747	0.788	0.836	0.755	0.586	0.635	0.831	0.321
HOP-62	1.3	1.15	1.1	1.22	0.703	0.607	0.647	0.741	0.962	0.604	0.348	0.1	0.14	0.421	0.318	0.149	0.117	0.133	1.15	0.632

Cell Line	relative viability (Cediranib + Foretinib; first compound 0.04 µM)	relative viability (Cediranib + Foretinib; first compound 0.1265 µM)	relative viability (Cediranib + Foretinib; first compound 0.4 µM)	relative viability (Cediranib + Foretinib; first compound 4 µM)	relative viability (Cediranib + Phenformin; first compound 0.04 µM)	relative viability (Cediranib + Phenformin; first compound 0.1265 µM)	relative viability (Cediranib + Phenformin; first compound 0.4 µM)	relative viability (Cediranib + Phenformin; first compound 4 µM)	relative viability (Decitabine + Lapatinib; first compound 0.04 µM)	relative viability (Decitabine + Lapatinib; first compound 0.1265 µM)	relative viability (Decitabine + Lapatinib; first compound 0.4 µM)	relative viability (Decitabine + Lapatinib; first compound 1.265 µM)	relative viability (Decitabine + Lapatinib; first compound 4 µM)	relative viability (Decitabine + Crizotinib; first compound 0.04 µM)	relative viability (Decitabine + Crizotinib; first compound 0.1265 µM)	relative viability (Decitabine + Crizotinib; first compound 0.4 µM)	relative viability (Decitabine + Crizotinib; first compound 1.265 µM)	relative viability (Decitabine + Crizotinib; first compound 4 µM)	relative viability (Cediranib + Foretinib; first compound 1.265 µM)	relative viability (Cediranib + Phenformin; first compound 1.265 µM)
CAL-12T	1.1	1.02	1.09	1.2	0.618	0.641	0.597	0.648	0.607	0.698	0.264	0.504	0.375	0.612	0.664	0.174	0.416	0.222	1.12	0.627
NCI-H3122	0.938	1.03	0.991	1.02	0.374	–	0.364	0.363	1.05	1.03	1.02	0.816	0.783	0.258	0.251	0.277	0.346	0.28	0.844	0.36
PC-14	1.04	1.08	0.861	0.928	0.593	0.756	0.508	0.567	–	0.297	0.196	0.226	0.228	–	0.57	0.258	0.27	0.225	0.997	0.517
BEN	0.745	–	0.707	0.682	0.266	–	0.258	0.253	0.775	0.678	0.358	0.45	0.348	0.914	0.786	0.623	0.469	0.453	0.344	0.236
EPLC-272H	0.634	–	0.634	0.693	0.307	–	0.334	0.253	0.749	0.777	–	0.543	0.518	0.587	0.587	–	0.414	0.402	–	–
LK-2	1.43	0.875	1.23	1.01	0.38	0.175	0.35	0.29	0.784	0.991	0.75	0.521	0.402	–	0.219	0.262	0.265	0.219	1.19	0.418
HCC-827	1.2	–	0.986	1.03	0.412	–	0.389	0.356	–	0.168	0.187	0.187	0.2	–	0.396	0.355	0.262	0.272	1.05	0.385
NCI-H1993	0.798	0.936	0.763	0.53	0.423	0.5	0.484	0.393	0.837	0.774	0.8	0.731	0.725	0.898	0.776	0.832	0.702	0.728	0.739	0.523
NCI-H647	1.14	1.25	1.03	1.3	0.513	0.504	0.47	0.441	0.756	0.77	0.537	0.271	0.194	0.852	0.704	0.549	0.211	0.174	1.27	0.605
NCI-H460	1.01	1.02	1.02	1.04	0.528	0.576	0.527	0.56	0.902	1.06	0.277	0.18	0.114	0.524	0.623	0.22	0.186	0.126	0.944	0.512
EMC-BAC-2	1.04	1.11	0.984	1.03	0.507	0.583	0.535	0.436	0.926	0.989	0.556	0.67	0.586	0.64	0.656	0.454	0.483	0.402	0.991	0.484
NCI-H23	1.07	–	0.939	1.03	0.756	–	0.724	0.867	0.777	0.795	0.237	0.235	0.22	0.338	0.373	0.21	0.175	0.163	0.863	0.683
A-427	1.12	–	0.948	0.942	0.346	–	0.228	0.253	0.806	0.745	0.318	0.333	0.229	0.489	0.403	0.316	0.205	0.165	0.925	0.308
ABC-1	1.17	1.2	1.04	0.879	0.226	0.294	0.243	0.241	1.27	1.26	1.16	0.861	0.981	0.771	0.907	0.627	0.728	0.542	–	–
NCI-H322M	1.15	1.04	0.946	0.922	0.879	0.862	0.728	0.8	0.682	0.629	0.609	0.434	0.421	0.724	0.661	0.673	0.36	0.363	0.912	0.849
COR-L23	0.943	0.938	0.916	1.09	0.452	0.39	0.406	0.482	0.698	0.51	0.459	0.28	0.23	0.332	0.33	0.332	0.22	0.184	1.05	0.405
NCI-H2085	0.919	0.942	0.861	0.923	0.655	0.844	0.632	0.814	0.628	0.646	0.446	0.494	0.445	0.578	0.432	0.519	0.399	0.388	0.759	0.753
